Type in all cases: cell-based
The subject of series [1] is M. tuberculosis H37Rv (ATCC 27294). The series can be described thus: MIC by broth dilution method, M. tuberculosis H37Rv. The settings on record: Mycobacterium tuberculosis.
Series [2] is described as follows: Cytotoxicity assay (MTT) in macrophage J774 cells. The settings on record: mouse, J774 macrophage cells; also called safety index. In short, it runs like this: (§1)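 J774 cells seeded at 3×10^4 cells/cm^2 in RPMI with FCS reduced to 5%, then exposed to compounds at 40 μg/ml for 24 hrs. MTT reduction read at 450 nm; percentage cytotoxicity calculated relative to untreated cells.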

Series [3] concerns macrophage J774 cells line. As to the kind of experiment: Cytotoxicity assay (MTT) in macrophage J774 cells. The following applies: J774 cells, 24 hrs, MTT. Summed up: as §1
The mark [4] stands for this setting: 504 h, broth dilution, 3 weeks, read-out: MIC M. tb H37Rv.
The mark [5] stands for this setting: read-out: MIC value, text summary: sensitive H37Rv as well as MDR and XDR strains of M. tuberculosis.

In US9845330B2, “6-nitro-2,3-dihydroimidazo[2,1-b]oxazoles and a process for the preparation thereof” (priority 2013, dated 2017) one finds MIC, selectivity ratio and Cytotoxicity data, which are given here for 18 molecules.

Each structure is given as a SMILES string. In brackets after ≈: the same amount, converted by molar mass. Like-named read-outs stand apart in the source and are kept apart here.

Turning to `COc1ccc(-c2cn(-c3ccc(OC[C@@]4(C)Cn5cc([N+](=O)[O-])nc5O4)cc3)nn2)cc1` [IA11, (R)-2-{4-[4-(4-methoxyphenyl)-1H-1,2,3-triazol-1-yl]phenoxymethyl}-2,3-dihydro-2-methyl-6-nitroimidazo[2,1-b]oxazole], the results for the MIC in series [1] (setting [4]) and in series [1] (setting [5]) were 0.25 µg/mL (≈ 0.557 µM) and under 1 µg/mL, respectively. Besides, the selectivity ratio at 24 h, 40 μg/ml in series [2] was over 10. For the same molecule, in series [3], the Cytotoxicity is over 40 µg/mL.
For `CC(C)c1ccc(OCc2cc(-c3ccc(OC[C@@]4(C)Cn5cc([N+](=O)[O-])nc5O4)cc3)no2)cc1` [IC18, (R)-2-{4-[5-(4-isopropylphenoxymethyl)isoxazol-3-yl]phenoxymethyl}-2,3-dihydro-2-methyl-6-nitroimidazo[2,1-b]oxazole], the values for the minimum inhibitory concentration (MIC) in series [1] (setting [4]) and in series [1] (setting [5]) were 0.25 µg/mL (≈ 0.51 µM) and under 1 µg/mL, respectively. Also, in series [2], the selectivity ratio at 24 h, 40 μg/ml was over 10. Moreover, the Cytotoxicity in series [3] is over 40 µg/mL.
As to `C[C@]1(COc2ccc(S(=O)(=O)N3CCC(c4ccccc4)CC3)cc2)Cn2cc([N+](=O)[O-])nc2O1` [IIC8, (R)-2-{4-[(4-phenylpiperidin-1-yl)sulfonyl]phenoxymethyl}-2,3-dihydro-2-methyl-6-nitroimidazo[2,1-b]oxazole], the MIC in series [1] (setting [4]) and in series [1] (setting [5]) was 0.5 µg/mL (≈ 1 µM) in each case. For the same molecule, the selectivity ratio at 24 h, 40 μg/ml in series [2] was over 10. Also, the Cytotoxicity in series [3] is over 40 µg/mL.
Take `C[C@]1(COc2ccc(-c3cc(COc4ccccc4F)on3)cc2)Cn2cc([N+](=O)[O-])nc2O1` [IC16, (R)-2-{4-[5-(2-fluorophenoxymethyl)isoxazol-3-yl]phenoxymethyl}-2,3-dihydro-2-methyl-6-nitroimidazo[2,1-b]oxazole]: the MIC was 0.5 µg/mL (≈ 1.07 µM) in series [1] (setting [4]) and under 1 µg/mL in series [1] (setting [5]). Besides, the selectivity ratio at 24 h, 40 μg/ml in series [2] was over 10. The Cytotoxicity in series [3] was over 40 µg/mL.
The corresponding values for `C[C@]1(COc2ccc(-n3cc(-c4cccc(OC(F)(F)F)c4)nn3)cc2)Cn2cc([N+](=O)[O-])nc2O1` [IA12, (R)-2-{4-[4-(3-trifluoromethoxyphenyl)-1H-1,2,3-triazol-1-yl]phenoxymethyl}-2,3-dihydro-2-methyl-6-nitroimidazo[2,1-b]oxazole] are 0.5 µg/mL (≈ 0.995 µM), under 1 µg/mL, over 10 and over 40 µg/mL.
For the molecule `CCc1ccc(-c2cc(-c3ccc(OC[C@@]4(C)Cn5cc([N+](=O)[O-])nc5O4)cc3)no2)cc1` [IC2, (R)-2-{4-[5-(4-ethylphenyl)isoxazol-3-yl]phenoxymethyl}-2,3-dihydro-2-methyl-6-nitroimidazo[2,1-b]oxazole], the MIC in series [1] (setting [4]) came to 2 µg/mL (≈ 4.48 µM). In addition, the selectivity ratio at 24 h, 40 μg/ml in series [2] is over 10. The molecule further gave a Cytotoxicity in series [3] of over 40 µg/mL.
On to `CCC(C)c1ccc(OCc2cn(-c3ccc(OC[C@@]4(C)Cn5cc([N+](=O)[O-])nc5O4)cc3)nn2)cc1` (stereo partly shown) [IA32], for which the figures for the MIC in series [1] (setting [4]) and in series [1] (setting [5]) were 0.12 µg/mL (≈ 0.238 µM) and under 1 µg/mL, respectively. Besides, the selectivity ratio at 24 h, 40 μg/ml in series [2] is over 10. Further, the Cytotoxicity in series [3] is over 40 µg/mL.
On to `Cc1ccc(-c2cc(-c3ccc(OC[C@@]4(C)Cn5cc([N+](=O)[O-])nc5O4)cc3)no2)cc1` [IC6, (R)-2-{4-[5-(4-methylphenyl)isoxazol-3-yl]phenoxymethyl}-2,3-dihydro-2-methyl-6-nitroimidazo[2,1-b]oxazole], for which, in series [1] (setting [4]), the minimal inhibitory concentration (MIC) is 1 µg/mL (≈ 2.31 µM). For the same molecule, the selectivity ratio at 24 h, 40 μg/ml in series [2] was over 10. This molecule also displayed a Cytotoxicity in series [3] of over 40 µg/mL.
On to `C[C@]1(COc2ccc(-n3cc(-c4ccc(F)cc4)nn3)cc2)Cn2cc([N+](=O)[O-])nc2O1` [IA3, (R)-2-{4-[4-(4-fluorophenyl)-1H-1,2,3-triazol-1-yl]phenoxymethyl}-2,3-dihydro-2-methyl-6-nitroimidazo[2,1-b]oxazole], for which the MIC in series [1] (setting [4]) is 0.25 µg/mL (≈ 0.573 µM); in series [1] (setting [5]), under 1 µg/mL. In series [2], the selectivity ratio at 24 h, 40 μg/ml was over 10. This molecule also came in with a Cytotoxicity in series [3] of over 40 µg/mL.
The corresponding values for `CCc1ccc(NC(=O)Nc2ccc(OC[C@@]3(C)Cn4cc([N+](=O)[O-])nc4O3)cc2)cc1` [IIA2, (R)-1-(4-ethylphenyl)-3-{4-(2-methyl-6-nitro-2,3-dihydroimidazo[2,1-b]oxazol-2-yl)methoxyphenyl}urea] are 0.5 µg/mL (≈ 1.14 µM), under 1 µg/mL, over 10 and over 40 µg/mL.
Turning to `CCCCCCCc1cc(-c2ccc(OC[C@@]3(C)Cn4cc([N+](=O)[O-])nc4O3)cc2)no1` [IC12, (R)-2-{4-[5-heptylisoxazol-3-yl]phenoxymethyl}-2,3-dihydro-2-methyl-6-nitroimidazo[2,1-b]oxazole], in series [1] (setting [4]), the MIC was 2 µg/mL (≈ 4.54 µM). In addition, the selectivity ratio at 24 h, 40 μg/ml in series [2] is over 10. The molecule further had a Cytotoxicity in series [3] of over 40 µg/mL.
Turning to `C[C@]1(COc2ccc(-n3cc(COc4ccc(C(F)(F)F)cc4)nn3)cc2)Cn2cc([N+](=O)[O-])nc2O1` [IA27], the MIC in series [1] (setting [4]) was 0.25 µg/mL (≈ 0.484 µM); in series [1] (setting [5]) it was under 1 µg/mL. The selectivity ratio at 24 h, 40 μg/ml in series [2] is over 10. Besides, the Cytotoxicity in series [3] was over 40 µg/mL.
`C[C@]1(COc2ccccc2-n2cc(COc3ccc(C(F)(F)F)cc3)nn2)Cn2cc([N+](=O)[O-])nc2O1` [IA41]: the MIC in series [1] (setting [4]) was 2 µg/mL (≈ 3.87 µM). Moreover, the selectivity ratio at 24 h, 40 μg/ml in series [2] was over 10. The molecule further registered a Cytotoxicity in series [3] of over 40 µg/mL.
For the molecule `C[C@]1(COc2ccc(S(=O)(=O)N3CCN(C(=O)c4ccccc4)CC3)cc2)Cn2cc([N+](=O)[O-])nc2O1` [IIC6, (R)-{4-[4-(2-methyl-6-nitro-2,3-dihydroimidazo[2,1-b]oxazol-2yl)methoxyphenyl]sulfonyl}piperazine-1-yl(phenyl)methanone], the MIC in series [1] (setting [4]) came to 2 µg/mL (≈ 3.79 µM). The selectivity ratio at 24 h, 40 μg/ml in series [2] is over 10. The molecule further showed a Cytotoxicity in series [3] of over 40 µg/mL.
Consider `C[C@]1(COc2ccc(-c3cc(-c4ccccc4)on3)cc2)Cn2cc([N+](=O)[O-])nc2O1` [IC1, (R)-2-{4-[5-phenylisoxazol-3-yl]phenoxymethyl}-2,3-dihydro-2-methyl-6-nitroimidazo[2,1-b]oxazole], for which the MIC is 0.06 µg/mL (≈ 0.143 µM) in series [1] (504 h, read-out: MIC M. tb H37Rv, broth dilution, 3 weeks) and under 1 µg/mL in series [1] (setting [5]). Also, the selectivity ratio at 24 h, 40 μg/ml in series [2] was over 10. Further, in series [3], the Cytotoxicity is over 40 µg/mL.
With `C[C@]1(COc2ccccc2-n2cc(COc3ccc(OC(F)(F)F)cc3)nn2)Cn2cc([N+](=O)[O-])nc2O1` [IA39], the minimum inhibitory concentration (MIC) in series [1] (setting [4]) amounted to 1 µg/mL (≈ 1.88 µM). The selectivity ratio at 24 h, 40 μg/ml in series [2] was over 10. Besides, in series [3], the Cytotoxicity was over 40 µg/mL.
The corresponding values for `CCc1ccc(-c2cn(-c3ccc(OC[C@@]4(C)Cn5cc([N+](=O)[O-])nc5O4)cc3)nn2)cc1` [IA2, (R)-2-{4-[4-(4-ethylphenyl)-1H-1,2,3-triazol-1-yl]phenoxymethyl}-2,3-dihydro-2-methyl-6-nitroimidazo[2,1-b]oxazole] are 2 µg/mL (≈ 4.48 µM), over 10 and over 40 µg/mL.
Turning to `C[C@]1(COc2ccc(-n3cc(-c4cccc(C(F)(F)F)c4)nn3)cc2)Cn2cc([N+](=O)[O-])nc2O1` [IA13, (R)-2-{4-[4-(3-trifluoromethylphenyl)-1H-1,2,3-triazol-1-yl]phenoxymethyl}-2,3-dihydro-2-methyl-6-nitroimidazo[2,1-b]oxazole], the minimum inhibitory concentration (MIC) in series [1] (setting [4]) worked out at 2 µg/mL (≈ 4.11 µM). Besides, the selectivity ratio at 24 h, 40 μg/ml in series [2] is over 10. The molecule further came in with a Cytotoxicity in series [3] of over 40 µg/mL.
